A word on the IC50: it is the concentration at which inhibition is half-maximal.

Chain of Cruzipain (P25779 whole entry): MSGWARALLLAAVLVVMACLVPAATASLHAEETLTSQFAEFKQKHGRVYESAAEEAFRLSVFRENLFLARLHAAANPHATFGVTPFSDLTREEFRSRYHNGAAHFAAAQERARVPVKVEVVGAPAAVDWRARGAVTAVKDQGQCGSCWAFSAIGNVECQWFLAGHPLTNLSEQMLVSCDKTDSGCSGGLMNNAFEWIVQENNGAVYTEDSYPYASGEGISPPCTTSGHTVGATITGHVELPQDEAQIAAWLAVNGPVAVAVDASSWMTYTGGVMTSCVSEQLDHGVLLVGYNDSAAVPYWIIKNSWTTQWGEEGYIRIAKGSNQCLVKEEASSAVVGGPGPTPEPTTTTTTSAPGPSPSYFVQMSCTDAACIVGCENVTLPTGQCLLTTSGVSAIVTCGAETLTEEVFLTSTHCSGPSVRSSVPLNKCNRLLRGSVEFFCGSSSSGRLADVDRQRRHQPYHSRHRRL

This test addresses Cruzipain (Trypanosoma cruzi, UniProt P25779). Nature of the test: Inhibition of Trypanosoma cruzi recombinant cruzain.
With `CC(=O)C1=CCCc2ccccc21`, the IC50 stood at 1.36 µM.

With `NC(=S)N/N=C1\CCc2ccccc21`, the IC50 was greater than 17 µM.

Take `NC(=S)N/N=C1\CCOc2ccccc21`: the IC50 was greater than 17 µM.

As for `NC(=S)N/N=C1/CCCC(c2ccc(Br)cc2)C1` (configuration not stated), the IC50 was greater than 7 µM.

As for `NC(=S)N/N=C1\CCOc2ccc(Br)cc21`, the IC50 amounted to 0.11 µM.

Turning to `C=CC(=O)C1=CCCc2ccc(Br)cc21`, the 50% inhibitory concentration (IC50) came out at 0.8 µM.

Turning to `CC/C(=N\NC(N)=S)c1cccc(O)c1`, the IC50 is greater than 33 µM.

Consider `NC(=S)N/N=C1\CCS(=O)(=O)c2ccccc21`, for which the IC50 was greater than 20 µM.

`CC/C(=N\NC(N)=S)c1cccc(N)c1`: the concentration for half-maximal inhibition (IC50) was greater than 3.64 µM.

In the case of `NC(=S)N/N=C1\CCc2ccccc2O1`, the IC50 is greater than 16 µM.

Take `NC(=S)N/N=C1/CCC(c2ccc(Br)cc2)C1` (configuration not stated): the IC50 is greater than 5 µM.

Regarding `C/C(=N/NC(N)=S)C1=CCCc2ccccc21`, the half-maximal inhibitory concentration (IC50) is greater than 20 µM.

(Values after ChEMBL document CHEMBL1145324, “Design, synthesis, and biochemical evaluation of novel cruzain inhibitors with potential application in the treatment of Chagas' disease” (Bioorg Med Chem Lett, 2006).)
